This is an account of results in ChEMBL document CHEMBL1124670, “1-(3-cyano-2,3-dideoxy-beta-D-erythro-pentofuranosyl)thymine (cyanothymidine): synthesis and antiviral evaluation against human immunodeficiency virus” (1989).

SMILES strings stand for the structures. Values after ≈ are worked out from the molar mass of the structure shown.

Holding throughout (type): functional, Homo sapiens
For assay [1], the system named is C8166. As to the kind of experiment: Protection of C8166 cells against the cytopathic effect of HIV isolate RF. In general terms: Damage to the host cells serves as the signal in cytopathic effect assays.
A further assay relates to ATH-8 cell line. The assay can be described thus: Protection of ATH8 cells against the cytopathic effect of HIV isolate […].
Assay [2] deals with C8166. As to the kind of experiment: Protection of C8166 cells against the cytopathic effect of HIV isolate CBL-1.
Assay [3] deals with C8166. The assay can be described thus: Pprotection of C8166 cells against the cytopathic effect of HIV isolate RF.

`Cc1cn(C2C[C@@H](C#N)[C@@H](CO)O2)c(=O)[nH]c1=O` (stereo partly drawn): the ED90 in the assay with C8166 [1] is more than 100 µg/mL; with ATH-8 cell line, more than 2.5 µg/mL; in the assay on C8166 [2], more than 100 µg/mL.

Regarding `Cc1cn([C@H]2C=C[C@@H](CO)O2)c(=O)[nH]c1=O` [STAVUDINE], the ED90 in the assay with ATH-8 cell line is less than 0.25 µg/mL; with C8166 [3] it was 1 µg/mL (≈ 4.46 µM).

As to `Cc1cn([C@H]2C[C@H](N=[N+]=[N-])[C@@H](CO)O2)c(=O)[nH]c1=O` [ZIDOVUDINE], the ED90 is less than 0.25 µg/mL in the assay with ATH-8 cell line, 0.1 µg/mL (≈ 0.374 µM) with C8166 [2] and 1 µg/mL (≈ 3.74 µM) with C8166 [3].
